Test [1] deals with subjects with Sjögren's syndrome. The settings on record: no sustained benefit in controlled clinical trials; cited from earlier work.
In test [2] the test system is subjects with primary Sjögren's syndrome. As to the kind of experiment: Phase 2 trial, 12 weeks, four dosages of IFN lozenges versus CAM placebo. Format: in vivo, human. The settings on record: Phase 2, placebo (200 mg CAM) treated patients. From the text: (§1) The purposes of our investigations were to examine the safety and efficacy of four different dosages of IFN lozenges compared to placebo in subjects with primary Sjögren's syndrome over a 12-week period in a Phase 2 trial, and to examine the best dose from our Phase 2 trial in a 24-week Phase 3 trial. The primary endpoints of our Phase 2 and Phase 3 trials were measurements of unstimulated saliva and stimulated saliva and subjective assessments of dry mouth. The IFN-α was delivered to the patients in 200 mg lozenges consisting of crystalline anhydrous maltose (CAM). The placebo was 200 mg CAM without IFN in both (Phase 2 and Phase 3) clinical trials. […] The IFN-treated group did even better (73% and 81%, respectively), but the beneficial effect of CAM on UWS was striking. […] Not only will this benefit patients with Sjögren's syndrome, but CAM should benefit people with dry mouth from other causes.

Test [3] shares this test system. As to the kind of experiment: Phase 3 trial, 24 weeks, IFN lozenges versus 200 mg CAM placebo lozenges. The test is classed as in vivo, human.
Source text: as §1

Test [4] deals with subjects with Sjögren's syndrome. The settings on record: at 24 weeks, 30 subjects per group, p<0.001; cited from earlier work.

On to `CN(Cc1cc(Br)cc(Br)c1N)C1CCCCC1` [bromhexine], for which the salivary output entry in test [1] is “increase salivary output transiently”.

On to `OC[C@H]1O[C@H](O[C@H]2[C@H](O)[C@@H](O)[C@H](O)O[C@@H]2CO)[C@H](O)[C@@H](O)[C@@H]1O` [CAM, crystalline anhydrous maltose], for which, in test [2], the “patients with an increase in UWS by 12 weeks” value was 9 of 18. The “overall result of lozenge administration” value in test [3] (200 mg maltose lozenges three times daily) is “Good results”. In addition, in test [3] (Phase 3, after 6 months of daily treatment, 200 mg lozenges), the “patients with an increase in unstimulated whole saliva (UWS)” value came to 63.3%. With `CC[C@@H]1C(=O)OC[C@@H]1Cc1cncn1C` [pilocarpine], the salivary output entry in test [1] was “increase salivary output transiently”.

In the case of sucralfate, in test [4], the “subjects with ≧100% increase from baseline in stimulated whole salivary flow” value is recorded as 3%. On to `CC1OC2(CS1)CN1CCC2CC1` (stereo not shown) [cevimeline], for which the salivary output entry in test [1] was “increase salivary output transiently”.

The values above are taken from US6656920B2, “Composition and method for promoting oral health” (Amarillo Biosciences, Inc., priority 2000, dated 2003).
